In patent publication US9475028B2 (priority 2006, dated 2016):
Entries after “also recorded” stand apart in the source; their conditions may differ.

Tested on: A549 (Lung Mesothelial Carcinoma) cells
Assay type: cell-based

## C60(OH)n (n˜1-48) [PHF]
  observed damage to cells: restricted to the top layer of cells; also recorded: damage of multiple layers of cells
